# In PubChem BioAssay AID2060909 (Molecular Pharmacology Branch, DTP, NCI, 2025):
# Tested on: 362531-283-R-J2-PDC complex spheroid viability
# Test: Anticancer human tumor 362531-283-R-J2-PDC patient-derived colon adenocarcinoma cell line growth inhibition [RAS]
# Conditions: for IC50: curve of first compound; for viability, T/C: stronger effect = lower value
# Outline: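 Tumour cells grown as complex spheroids with HUVEC endothelial cells and mesenchymal stem cells, treated with RAS pathway inhibitor combinations. Each agent spans half-log steps from near clinical Cmax, or 10 microM where Cmax is unknown.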
# [1] = second compound 0.000949 µM, first compound 0.0316 µM
# [2] = second compound 0.000949 µM, first compound 0.1 µM
# [3] = second compound 0.000949 µM, first compound 0.316 µM
# [4] = second compound 0.000949 µM, first compound 1 µM
# [5] = second compound 0.000949 µM, first compound 3.16 µM
# [6] = second compound 0.000949 µM, first compound 10 µM
# [7] = second compound 0.003 µM, first compound 0.0316 µM
# [8] = second compound 0.003 µM, first compound 0.1 µM
# [9] = second compound 0.003 µM, first compound 0.316 µM
# [10] = second compound 0.003 µM, first compound 1 µM
# [11] = second compound 0.003 µM, first compound 3.16 µM
# [12] = second compound 0.003 µM, first compound 10 µM
# [13] = second compound 0.00949 µM, first compound 0.0316 µM
# [14] = second compound 0.00949 µM, first compound 0.1 µM
# [15] = second compound 0.00949 µM, first compound 0.316 µM
# [16] = second compound 0.00949 µM, first compound 1 µM
# [17] = second compound 0.00949 µM, first compound 3.16 µM
# [18] = second compound 0.00949 µM, first compound 10 µM
# [19] = second compound 0.03 µM, first compound 0.0316 µM
# [20] = second compound 0.03 µM, first compound 0.1 µM
# [21] = second compound 0.03 µM, first compound 0.316 µM
# [22] = second compound 0.03 µM, first compound 1 µM
# [23] = second compound 0.03 µM, first compound 3.16 µM
# [24] = second compound 0.03 µM, first compound 10 µM
# [25] = second compound 0.0949 µM, first compound 0.0316 µM
# [26] = second compound 0.0949 µM, first compound 0.1 µM
# [27] = second compound 0.0949 µM, first compound 0.316 µM
# [28] = second compound 0.0949 µM, first compound 1 µM
# [29] = second compound 0.0949 µM, first compound 3.16 µM
# [30] = second compound 0.0949 µM, first compound 10 µM
# [31] = second compound 0.3 µM, first compound 0.0316 µM
# [32] = second compound 0.3 µM, first compound 0.1 µM
# [33] = second compound 0.3 µM, first compound 0.316 µM
# [34] = second compound 0.3 µM, first compound 1 µM
# [35] = second compound 0.3 µM, first compound 3.16 µM
# [36] = second compound 0.3 µM, first compound 10 µM
# 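Further: spheroids exposed to the agents for 7 days before readout.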
# 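Wherever viability, T/C is given: luminescence viability as percent of DMSO vehicle control wells.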
compound,measurement,setting,value
CC(Nc1ccc2c(c1)OCCn1cc(N3C(=O)OCC3C(F)F)nc1-2)C(N)=O (centres undefined) + CCn1c(-c2cccnc2C(C)OC)c2c3cc(ccc31)N1CCOC(CC(NC(=O)C(C(C)C)N(C)C(=O)C3(F)CCN(C(=O)C#CC(C)(C)N(C)C)CC3)C(=O)N3CCCC(N3)C(=O)OCC(C)(C)C2)C1,IC50,second compound 0.000949 µM,1.53 µM
same,IC50,second compound 0.003 µM,1.29 µM
same,IC50,second compound 0.00949 µM,1.68 µM
same,IC50,second compound 0.03 µM,2.09 µM
same,IC50,second compound 0.0949 µM,1.65 µM
same,IC50,second compound 0.3 µM,1.51 µM
same,"viability, T/C",[1],103%
same,"viability, T/C",[2],107%
same,"viability, T/C",[3],92.1%
same,"viability, T/C",[4],59.6%
same,"viability, T/C",[5],34.2%
same,"viability, T/C",[6],29%
same,"viability, T/C",[7],106%
same,"viability, T/C",[8],95.5%
same,"viability, T/C",[9],92.9%
same,"viability, T/C",[10],52.4%
same,"viability, T/C",[11],36.8%
same,"viability, T/C",[12],24.4%
same,"viability, T/C",[13],95.4%
same,"viability, T/C",[14],106%
same,"viability, T/C",[15],87.8%
same,"viability, T/C",[16],62.4%
same,"viability, T/C",[17],35.7%
same,"viability, T/C",[18],28.4%
same,"viability, T/C",[19],98.4%
same,"viability, T/C",[20],96.5%
same,"viability, T/C",[21],87.1%
same,"viability, T/C",[22],65.3%
same,"viability, T/C",[23],41.7%
same,"viability, T/C",[24],24.9%
same,"viability, T/C",[25],93.9%
same,"viability, T/C",[26],91.4%
same,"viability, T/C",[27],88.5%
same,"viability, T/C",[28],60.5%
same,"viability, T/C",[29],36.1%
same,"viability, T/C",[30],24.5%
same,"viability, T/C",[31],93.4%
same,"viability, T/C",[32],85.5%
same,"viability, T/C",[33],83%
same,"viability, T/C",[34],56.9%
same,"viability, T/C",[35],36.6%
same,"viability, T/C",[36],28%
CC1(O)CCCC1n1c(=O)c(C(F)F)cc2cnc(NC3CCN(S(C)(=O)=O)CC3)nc21 (centres undefined) + CCn1c(-c2cc(N3CCN(C)CC3)cnc2C(C)OC)c2c3cc(ccc31)-c1csc(n1)CC(NC(=O)C1CC1C)C(=O)N1CCCC(N1)C(=O)OCC(C)(C)C2,IC50,second compound 0.000949 µM,5.44 µM
same,IC50,second compound 0.003 µM,6.11 µM
same,IC50,second compound 0.00949 µM,8.98 µM
same,IC50,second compound 0.03 µM,5.9 µM
same,IC50,second compound 0.0949 µM,> 10 µM
same,IC50,second compound 0.3 µM,< 0.0316 µM
same,"viability, T/C",[1],97.7%
same,"viability, T/C",[2],97.5%
same,"viability, T/C",[3],98%
same,"viability, T/C",[4],79.5%
same,"viability, T/C",[5],57.6%
same,"viability, T/C",[6],42.2%
same,"viability, T/C",[7],109%
same,"viability, T/C",[8],112%
same,"viability, T/C",[9],97.4%
same,"viability, T/C",[10],76.9%
same,"viability, T/C",[11],61.5%
same,"viability, T/C",[12],42.4%
same,"viability, T/C",[13],94.6%
same,"viability, T/C",[14],111%
same,"viability, T/C",[15],108%
same,"viability, T/C",[16],83.5%
same,"viability, T/C",[17],65.5%
same,"viability, T/C",[18],47.5%
same,"viability, T/C",[19],99.2%
same,"viability, T/C",[20],99.1%
same,"viability, T/C",[21],89.4%
same,"viability, T/C",[22],87%
same,"viability, T/C",[23],69.2%
same,"viability, T/C",[24],33.9%
same,"viability, T/C",[25],80.7%
same,"viability, T/C",[26],79.2%
same,"viability, T/C",[27],78.6%
same,"viability, T/C",[28],68.2%
same,"viability, T/C",[29],56.4%
same,"viability, T/C",[30],61%
same,"viability, T/C",[31],37.4%
same,"viability, T/C",[32],50.2%
same,"viability, T/C",[33],37.7%
same,"viability, T/C",[34],55.8%
same,"viability, T/C",[35],45.9%
same,"viability, T/C",[36],7.05%
